The text below walks through data of ChEMBL document CHEMBL3991601, “The target landscape of clinical kinase drugs” (Science, 2017).

The structures appear in SMILES notation. Calls of active or inactive are those of the source.

In test [1] the target is Mitogen-activated protein kinase 10 (Homo sapiens, UniProt P53779).
The target of test [2] is T1, Dual specificity mitogen-activated protein kinase kinase 6 (Homo sapiens, UniProt P52564).
T1 sequence (P52564 whole entry): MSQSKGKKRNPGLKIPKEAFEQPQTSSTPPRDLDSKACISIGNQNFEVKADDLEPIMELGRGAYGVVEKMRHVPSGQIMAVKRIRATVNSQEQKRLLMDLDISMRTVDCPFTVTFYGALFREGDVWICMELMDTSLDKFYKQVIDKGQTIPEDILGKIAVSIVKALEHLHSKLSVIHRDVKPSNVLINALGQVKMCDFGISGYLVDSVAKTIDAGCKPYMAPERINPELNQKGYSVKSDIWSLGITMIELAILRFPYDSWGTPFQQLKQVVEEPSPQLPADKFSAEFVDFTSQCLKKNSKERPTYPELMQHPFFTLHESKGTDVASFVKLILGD

Test [3] concerns the target Inosine-5'-monophosphate dehydrogenase 2 (Homo sapiens, UniProt P12268).
Test [4] concerns the target T2, Acyl-CoA dehydrogenase family member 10 (Homo sapiens, UniProt Q6JQN1).
T2 sequence (Q6JQN1 whole entry): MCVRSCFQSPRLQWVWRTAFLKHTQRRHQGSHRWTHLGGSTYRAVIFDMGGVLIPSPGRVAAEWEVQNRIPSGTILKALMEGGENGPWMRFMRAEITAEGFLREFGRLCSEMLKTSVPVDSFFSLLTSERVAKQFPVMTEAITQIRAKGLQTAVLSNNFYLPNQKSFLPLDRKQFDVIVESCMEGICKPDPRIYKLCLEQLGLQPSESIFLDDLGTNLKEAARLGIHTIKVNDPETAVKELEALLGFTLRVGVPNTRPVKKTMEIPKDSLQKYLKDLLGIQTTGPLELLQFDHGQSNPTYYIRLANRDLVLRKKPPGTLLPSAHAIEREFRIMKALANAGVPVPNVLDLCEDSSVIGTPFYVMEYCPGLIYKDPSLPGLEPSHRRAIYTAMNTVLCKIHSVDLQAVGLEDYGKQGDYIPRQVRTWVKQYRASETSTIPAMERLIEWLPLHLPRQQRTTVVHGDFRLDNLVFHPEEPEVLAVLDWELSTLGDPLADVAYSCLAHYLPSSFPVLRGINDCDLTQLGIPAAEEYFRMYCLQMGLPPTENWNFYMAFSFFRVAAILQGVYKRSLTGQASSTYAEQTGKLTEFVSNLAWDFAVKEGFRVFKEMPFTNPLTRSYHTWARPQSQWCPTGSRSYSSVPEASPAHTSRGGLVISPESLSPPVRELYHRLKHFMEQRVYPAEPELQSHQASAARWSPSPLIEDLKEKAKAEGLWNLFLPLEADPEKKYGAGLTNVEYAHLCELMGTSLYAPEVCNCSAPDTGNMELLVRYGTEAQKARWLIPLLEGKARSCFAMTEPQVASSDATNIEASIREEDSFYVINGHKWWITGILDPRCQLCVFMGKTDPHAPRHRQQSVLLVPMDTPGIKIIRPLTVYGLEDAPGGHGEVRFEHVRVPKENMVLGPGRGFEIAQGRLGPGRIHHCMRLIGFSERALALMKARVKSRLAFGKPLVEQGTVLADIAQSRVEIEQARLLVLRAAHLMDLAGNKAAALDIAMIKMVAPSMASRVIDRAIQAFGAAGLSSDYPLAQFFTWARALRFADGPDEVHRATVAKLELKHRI

The target in test [5] is Protein kinase C delta type (Homo sapiens, UniProt Q05655).
Protein kinase C delta type, sequence (Q05655 whole entry): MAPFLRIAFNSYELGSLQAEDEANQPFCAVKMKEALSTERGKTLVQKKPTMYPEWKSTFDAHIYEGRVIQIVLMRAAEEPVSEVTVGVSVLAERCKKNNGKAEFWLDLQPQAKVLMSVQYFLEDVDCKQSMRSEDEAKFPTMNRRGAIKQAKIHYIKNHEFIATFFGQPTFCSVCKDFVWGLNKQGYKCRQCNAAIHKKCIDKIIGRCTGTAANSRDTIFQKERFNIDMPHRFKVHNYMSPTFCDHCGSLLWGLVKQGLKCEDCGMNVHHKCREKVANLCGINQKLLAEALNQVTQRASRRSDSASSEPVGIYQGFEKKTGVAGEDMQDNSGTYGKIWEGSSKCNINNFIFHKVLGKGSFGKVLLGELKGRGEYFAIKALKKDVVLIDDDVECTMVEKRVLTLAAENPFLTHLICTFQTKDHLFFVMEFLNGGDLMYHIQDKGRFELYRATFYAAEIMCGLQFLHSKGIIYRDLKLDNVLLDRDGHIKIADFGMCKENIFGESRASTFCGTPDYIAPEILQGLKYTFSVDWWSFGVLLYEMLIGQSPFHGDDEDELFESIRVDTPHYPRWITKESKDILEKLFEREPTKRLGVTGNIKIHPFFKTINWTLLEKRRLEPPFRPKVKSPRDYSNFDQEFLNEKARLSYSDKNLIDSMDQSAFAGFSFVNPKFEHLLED
The target in test [6] is Serine/threonine-protein kinase N1 (Homo sapiens, UniProt Q16512).
Serine/threonine-protein kinase N1, sequence (Q16512 whole entry): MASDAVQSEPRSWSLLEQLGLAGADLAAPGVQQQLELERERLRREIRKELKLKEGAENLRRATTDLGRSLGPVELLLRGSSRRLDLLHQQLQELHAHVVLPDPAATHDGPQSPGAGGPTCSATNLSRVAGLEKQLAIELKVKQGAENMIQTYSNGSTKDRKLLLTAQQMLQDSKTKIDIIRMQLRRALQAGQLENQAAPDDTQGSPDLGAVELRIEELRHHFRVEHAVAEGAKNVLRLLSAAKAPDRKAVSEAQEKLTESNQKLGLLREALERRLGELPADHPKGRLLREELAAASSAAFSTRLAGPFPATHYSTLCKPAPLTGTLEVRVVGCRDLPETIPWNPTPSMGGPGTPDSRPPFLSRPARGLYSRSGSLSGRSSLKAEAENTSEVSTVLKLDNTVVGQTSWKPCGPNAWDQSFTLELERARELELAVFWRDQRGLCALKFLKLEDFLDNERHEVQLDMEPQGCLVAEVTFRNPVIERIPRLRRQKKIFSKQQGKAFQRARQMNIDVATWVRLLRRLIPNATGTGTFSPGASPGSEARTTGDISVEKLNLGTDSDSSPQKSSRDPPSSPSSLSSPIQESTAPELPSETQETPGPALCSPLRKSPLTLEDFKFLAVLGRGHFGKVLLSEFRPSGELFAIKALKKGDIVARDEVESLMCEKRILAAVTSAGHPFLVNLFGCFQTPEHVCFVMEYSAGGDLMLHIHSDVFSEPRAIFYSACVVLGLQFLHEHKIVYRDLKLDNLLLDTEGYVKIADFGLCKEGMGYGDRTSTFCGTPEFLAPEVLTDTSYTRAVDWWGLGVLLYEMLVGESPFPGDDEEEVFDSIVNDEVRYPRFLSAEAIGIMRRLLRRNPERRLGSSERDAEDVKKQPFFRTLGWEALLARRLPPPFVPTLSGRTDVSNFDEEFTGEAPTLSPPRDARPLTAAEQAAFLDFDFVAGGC
For test [7], the target named is Macrophage-stimulating protein receptor (Homo sapiens, UniProt Q04912).
Macrophage-stimulating protein receptor, sequence (Q04912 25-304 limits assumed): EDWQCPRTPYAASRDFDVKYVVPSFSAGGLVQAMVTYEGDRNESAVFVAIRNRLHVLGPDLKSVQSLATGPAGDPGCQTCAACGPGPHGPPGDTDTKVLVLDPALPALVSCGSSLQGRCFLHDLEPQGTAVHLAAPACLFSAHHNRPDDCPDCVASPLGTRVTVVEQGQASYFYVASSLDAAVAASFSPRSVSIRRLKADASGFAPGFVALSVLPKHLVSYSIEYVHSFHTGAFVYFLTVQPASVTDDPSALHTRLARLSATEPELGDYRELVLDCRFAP
Macrophage-stimulating protein receptor, sequence (Q04912 310-1400 limits assumed): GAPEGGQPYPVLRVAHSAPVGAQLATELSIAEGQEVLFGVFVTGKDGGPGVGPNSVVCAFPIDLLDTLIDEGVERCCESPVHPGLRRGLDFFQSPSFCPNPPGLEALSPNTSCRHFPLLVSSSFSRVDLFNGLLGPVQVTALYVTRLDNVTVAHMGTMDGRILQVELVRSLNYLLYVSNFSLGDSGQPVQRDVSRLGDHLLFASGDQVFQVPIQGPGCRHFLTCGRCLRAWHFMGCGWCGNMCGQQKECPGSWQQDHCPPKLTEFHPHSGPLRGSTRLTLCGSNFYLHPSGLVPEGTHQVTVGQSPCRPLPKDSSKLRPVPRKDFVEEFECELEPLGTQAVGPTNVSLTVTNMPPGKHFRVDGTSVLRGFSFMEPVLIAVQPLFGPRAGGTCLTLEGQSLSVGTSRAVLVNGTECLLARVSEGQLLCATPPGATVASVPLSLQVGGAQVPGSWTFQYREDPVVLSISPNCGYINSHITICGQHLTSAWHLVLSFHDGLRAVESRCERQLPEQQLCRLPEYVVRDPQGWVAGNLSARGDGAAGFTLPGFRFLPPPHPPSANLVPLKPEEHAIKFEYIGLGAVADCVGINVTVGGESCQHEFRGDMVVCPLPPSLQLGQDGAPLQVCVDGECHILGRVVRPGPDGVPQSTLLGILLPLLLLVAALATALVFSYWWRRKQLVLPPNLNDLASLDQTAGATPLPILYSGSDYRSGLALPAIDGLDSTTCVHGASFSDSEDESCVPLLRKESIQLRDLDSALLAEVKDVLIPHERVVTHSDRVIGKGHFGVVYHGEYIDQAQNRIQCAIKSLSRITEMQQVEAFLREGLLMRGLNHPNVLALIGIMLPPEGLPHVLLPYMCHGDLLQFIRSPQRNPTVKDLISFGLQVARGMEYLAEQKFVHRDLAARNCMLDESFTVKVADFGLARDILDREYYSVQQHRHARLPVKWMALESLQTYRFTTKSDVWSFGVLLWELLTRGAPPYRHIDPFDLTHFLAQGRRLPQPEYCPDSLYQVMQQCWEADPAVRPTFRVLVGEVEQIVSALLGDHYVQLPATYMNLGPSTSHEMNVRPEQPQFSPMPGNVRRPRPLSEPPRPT
In the next test the target is T3, Heme oxygenase 2 (Homo sapiens, UniProt P30519).
T3 sequence (P30519 whole entry): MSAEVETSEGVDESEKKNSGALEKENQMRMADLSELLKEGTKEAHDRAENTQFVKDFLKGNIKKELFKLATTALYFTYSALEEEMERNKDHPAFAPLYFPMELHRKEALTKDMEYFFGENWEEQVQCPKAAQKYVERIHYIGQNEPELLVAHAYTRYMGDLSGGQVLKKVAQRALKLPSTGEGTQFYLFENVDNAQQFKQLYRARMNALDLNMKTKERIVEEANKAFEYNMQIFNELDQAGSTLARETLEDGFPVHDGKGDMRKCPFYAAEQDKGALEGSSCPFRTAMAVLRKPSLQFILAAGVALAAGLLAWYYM

For orientation: Kd means a measure of binding affinity in units of concentration.
Note: in the data inactive means no Kd found up to 30 µM.

Mitogen-activated protein kinase 10, sequence (P53779 whole entry): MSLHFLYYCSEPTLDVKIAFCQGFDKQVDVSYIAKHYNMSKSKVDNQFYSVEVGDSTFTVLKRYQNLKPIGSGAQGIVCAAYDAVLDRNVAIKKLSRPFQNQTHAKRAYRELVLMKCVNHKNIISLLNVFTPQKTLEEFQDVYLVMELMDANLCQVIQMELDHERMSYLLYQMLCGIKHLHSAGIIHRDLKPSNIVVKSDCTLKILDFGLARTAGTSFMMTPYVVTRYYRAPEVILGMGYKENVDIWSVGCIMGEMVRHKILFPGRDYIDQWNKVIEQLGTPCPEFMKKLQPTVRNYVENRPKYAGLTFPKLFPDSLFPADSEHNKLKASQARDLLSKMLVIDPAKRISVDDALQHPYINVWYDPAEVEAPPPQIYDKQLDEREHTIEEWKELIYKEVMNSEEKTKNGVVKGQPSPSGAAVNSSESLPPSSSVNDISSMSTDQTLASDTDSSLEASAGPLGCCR

Turning to `CC[C@@H]1C(=O)N(C)c2cnc(Nc3ccc(C(=O)N[C@H]4CC[C@H](N5CCN(CC6CC6)CC5)CC4)cc3OC)nc2N1C(C)C` [VOLASERTIB], the Kd in test [1], in test [2], in test [3], in test [4], in test [5] and in test [6] was > 30 µM (inactive) in each case. Moreover, the Kd (in test [7]; at Heme oxygenase 2) was > 30 µM (inactive) throughout.
For `Cc1ccc(S(=O)(=O)Nc2nc3ccccc3nc2Nc2ccc3nsnc3c2)cc1`, the Kd in test [1], in test [2], in test [3], in test [4], in test [5] and in test [6] was > 30 µM (inactive) throughout. Also, the Kd (in test [7]; on Heme oxygenase 2) was > 30 µM (inactive) throughout.
In the case of `Cn1cc(-c2ccc(F)c(C(F)(F)F)c2)nc1C1CCN(c2ncnc3[nH]ncc23)CC1` [LY-2584702], the Kd in test [1], in test [2], in test [3], in test [4], in test [5] and in test [6] was > 30 µM (inactive) throughout. Further, the Kd (in test [7]; on Heme oxygenase 2) was > 30 µM (inactive) each time.
As for `COc1cc(OC)c(/C=C/S(=O)(=O)Cc2ccc(OC)c(NCC(=O)O)c2)c(OC)c1` [RIGOSERTIB], the Kd in test [1], in test [2], in test [3], in test [4], in test [5] and in test [6] was > 30 µM (inactive) throughout. For the same molecule, the Kd (in test [7]; at Heme oxygenase 2) was > 30 µM (inactive) in each case.
`CCn1c(=O)c(-c2cc[nH]n2)cc2c(C)nc(N)nc21` [VOXTALISIB]: the Kd in test [1], in test [2], in test [3], in test [4], in test [5] and in test [6] was > 30 µM (inactive) each time. In addition, the Kd (in test [7]; on Heme oxygenase 2) was > 30 µM (inactive) each time.
Regarding `CO[C@H]1C[C@@H]2CC[C@@H](C)[C@@](O)(O2)C(=O)C(=O)N2CCCC[C@H]2C(=O)O[C@H]([C@H](C)C[C@@H]2CC[C@@H](OCCO)[C@H](OC)C2)CC(=O)[C@H](C)/C=C(\C)[C@@H](O)[C@@H](OC)C(=O)[C@H](C)C[C@H](C)/C=C/C=C/C=C/1C` [EVEROLIMUS], the Kd in test [1], in test [2], in test [3], in test [4], in test [5] and in test [6] was > 30 µM (inactive) in each case. The Kd (in test [7]; on Heme oxygenase 2) was > 30 µM (inactive) throughout.
With `CCCS(=O)(=O)Nc1ccc(F)c(C(=O)c2c[nH]c3ncc(-c4ccc(Cl)cc4)cc23)c1F` [VEMURAFENIB], the Kd in test [1], in test [2], in test [3], in test [4], in test [5] and in test [6] was > 30 µM (inactive) in each case. In addition, the Kd (in test [7]; at Heme oxygenase 2) was > 30 µM (inactive) in each case.
Take `O=C(Nc1ccc(-c2ccnc(Nc3ccc(N4CCOCC4)cc3)n2)cc1)C1CCCN1` (configuration not stated) [XL-019]: the Kd in test [1], in test [2], in test [3], in test [4], in test [5] and in test [6] was > 30 µM (inactive) throughout. The Kd (in test [7]; on Heme oxygenase 2) was > 30 µM (inactive) each time.
As for `Cn1ncc(Cl)c1-c1cc(C(=O)N[C@H](CN)Cc2cccc(F)c2)sc1Cl` [AFURESERTIB], the Kd was > 30 µM (inactive) in test [1]; > 30 µM (inactive) in test [2]; > 30 µM (inactive) in test [3]; > 30 µM (inactive) in test [5]; 0.88 µM (active) in test [6]; > 30 µM (inactive) in test [7]. The Kd on Heme oxygenase 2 was > 30 µM (inactive).
For the molecule `CNC(=O)CN1CCC(Oc2cc3c(Nc4cccc(Cl)c4F)ncnc3cc2OC)CC1` [SAPITINIB], the Kd in test [1], in test [2], in test [3], in test [4], in test [5] and in test [6] was > 30 µM (inactive) in each case. Further, the Kd (in test [7]; on Heme oxygenase 2) was > 30 µM (inactive) throughout.
As to `CC(=O)Nc1cccc(-n2c(=O)n(C3CC3)c(=O)c3c(Nc4ccc(I)cc4F)n(C)c(=O)c(C)c32)c1` [TRAMETINIB], the Kd in test [1], in test [2], in test [3], in test [4], in test [5] and in test [6] was > 30 µM (inactive) throughout. In addition, the Kd (in test [7]; at Heme oxygenase 2) was > 30 µM (inactive) throughout.
In the case of `COC(=O)N[C@@H](C)CNc1nccc(-c2cn(C(C)C)nc2-c2cc(Cl)cc(NS(C)(=O)=O)c2F)n1` [ENCORAFENIB], the Kd in test [1], in test [2], in test [3], in test [4], in test [5] and in test [6] was > 30 µM (inactive) each time. The Kd (in test [7]; at Heme oxygenase 2) was > 30 µM (inactive) in each case.
As to `CNC(=O)c1ccc(-c2cnc3ncc(Cc4ccc5ncccc5c4)n3n2)cc1F` [CAPMATINIB], the Kd in test [1], in test [2], in test [3], in test [4], in test [5] and in test [6] was > 30 µM (inactive) in each case. For the same molecule, the Kd (in test [7]; on Heme oxygenase 2) was > 30 µM (inactive) in each case.
With `CNC(=O)c1ccc(C)c(-n2c(C)cc(OCc3ccc(F)cc3F)c(Br)c2=O)c1` [PH-797804], the Kd in test [1], in test [2], in test [3], in test [5], in test [6] and in test [7] was > 30 µM (inactive) each time. The Kd on Heme oxygenase 2 was > 30 µM (inactive).
In the case of `CCN1CCN(Cc2ccc(-c3cc4c(N[C@H](C)c5ccccc5)ncnc4[nH]3)cc2)CC1` [AEE-788], the Kd in test [1], in test [2], in test [3], in test [5], in test [6] and in test [7] was > 30 µM (inactive) each time. On Heme oxygenase 2, the Kd was > 30 µM (inactive).
